Here are results for 18 compounds from patent US20130190223A1, “NONIMMUNOSUPPRESSIVE CYCLOSPORINE ANALOGUE MOLECULES” (ISOTECHNIKA PHARMA INC., priority 2008, published 2013).

For one data set, the system named is human lymphocytes. Description: Immunosuppressive potency: inhibition of proliferation of anti-CD3 stimulated human lymphocytes (CFSE, flow cytometry). Format: cell-based. As to conditions: relative potency: IC50 for inhibition of cell division normalized to CsA, 3 days incubation. The method, then: The immunosuppressive potency of test compounds was assessed by measuring their ability to inhibit the proliferation of human lymphocytes in cell culture. Lymphocytes were isolated from blood of normal human volunteers by Ficoll-gradient centrifugation and stained with 2 μg/ml carboxyfluoroscein diacetate succinimydyl ester (CFSE), a fluorescent cell division tracer molecule. Cells were stimulated through the CD3/T-cell receptor by seeding cells at 300,000/well into 96-well flat-bottom, high-binding plates coated with 1 μg/ml UCHT-1 anti-human CD3 antibody. Test compounds were prepared first as 10 mg/ml stock solutions in dimethylsulfoxide (DMSO). Test solutions were prepared by 500-fold dilution of the DMSO stock solutions, then 3-fold serial dilutions in cell culture medium (RPMI+5% FBS+penicillin-steptomycin) for a total of 7 concentrations per compound. Test solutions were added in equal volume to the culture wells containing cells to achieve final concentrations after dilution of 13.7 ng/ml-10,000 ng/ml. […] Following 3 days incubation cells were stained with CD95-APC (lymphocyte activation marker) and analyzed by flow cytometry with a Becton Dickinson FACSCalibur. Percentage cell division was assessed in forward/side-scatter-gated lymphocytes by measuring the proportion of cells that underwent one or more cell divisions as determined by serial halving of CFSE intensity. The nondivided parent population was determined from samples maintained in culture without anti-CD3 stimulation. IC50 values for inhibition of cell division were determined by nonlinear regression analysis. […]
(Flow cytometry measures light scatter and fluorescence of single cells or particles in a stream.)

The target in the next data set is T1, CyP-D (Rattus norvegicus, UniProt P29117).
T1 construct: Mitochondria were isolated from fresh rat liver; from tissue; host or cells: rat liver mitochondria
T1 sequence (P29117 30-206): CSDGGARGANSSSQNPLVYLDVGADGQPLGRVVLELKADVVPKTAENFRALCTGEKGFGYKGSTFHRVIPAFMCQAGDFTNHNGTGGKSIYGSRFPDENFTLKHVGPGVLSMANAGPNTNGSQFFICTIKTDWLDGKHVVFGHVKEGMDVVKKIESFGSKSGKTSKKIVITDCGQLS
Format: biochemical. As to conditions: mitochondria isolated from rat liver, 190 μM calcium, swelling as decline in A540. From the text: A mitochondria swelling assay was used to measure the efficacy of NICAMs in blocking CyP-D and mitochondrial permeability transition. Under certain pathological conditions, mitochondria lose the ability to regulate calcium levels, and excessive calcium accumulation in the mitochondrial matrix results in the opening of large pores in the inner mitochondrial membrane. Nonselective conductance of ions and molecules up to 1.5 kilodaltons through the pore, a process called mitochondrial permeability transition, leads to swelling of mitochondria and other events which culminate in cell death. […] In general, mitochondria isolated from rat liver were exposed to calcium to induce MPTP opening in the absence or presence of test compounds, and calcium-induced swelling was measured as a reduction in light absorbance at 540 nm.
Mitochondria were isolated from fresh rat liver. Ice-cold or 4° C. conditions were used throughout all steps of the isolation. The liver was rinsed thoroughly and chopped in a small volume of isolation buffer (IB; 10 mM Hepes, 70 mM sucrose, 210 mM mannitol, 0.5 mM EDTA). Aliquots of the minced liver were homogenized in IB using a Teflon-glass Potter-Elvehjem tissue grinder and passed through a cell screen filter. The filtered homogenate was centrifuged at 600 g for 10 min, then the resulting supernatant centrifuged at 7000 g for 10 min. The supernatant was discarded, and the pellet resuspended in wash buffer (10 mM Hepes, 70 mM sucrose, 210 mM mannitol) and centrifuged a final time at 7000 g for 10 min. The supernatant was discarded, and the mitochondria-containing pellet suspended and stored on ice in 2 mL of respiration buffer (RB; 5 mM Hepes, 70 mM sucrose, 210 mM mannitol, 10 mM sodium succinate, 1 mM sodium phosphate dibasic).
Test compound solutions were prepared from 10 mg/ml stocks (dimethyl sulfoxide vehicle) first by diluting the test compound 1000× into respiration buffer #2 (RB2; 5 mM Hepes, 70 mM sucrose, 210 mM mannitol, 10 mM sodium succinate, 1 mM sodium phosphate dibasic, 1% fetal bovine serum, 2 μM rotenone), then by 3×-serial dilutions in RB2 to achieve test compound concentrations of 10000, 3333, 1111, 370, 123, 41, and 14 ng/mL. Polystyrene tubes and plates were used for all preparations.
Swelling assays were completed in a 96-well flat-bottom polystyrene plates. In each well a 10-μL aliquot of mitochondria suspension, equivalent to 100-200 μg total protein, was combined with 90 μL of test compound, incubated for 10 min, then the baseline absorbance measured on a plate reader (540 nm wavelength; A540). Swelling was induced by adding 5 μL of 4 mM calcium chloride to achieve a final calcium concentration of 190 μM. Mitochondria swelling was indicated by a decline in A540. […] Duplicate samples were assayed for each test compound concentration.
Means and ranges of duplicate samples are shown.

Structures are written as SMILES.

On to `CCC1NC(=O)C(C(O)C(C)CC=CCCCCCCC(=O)N(C)C)N(C)C(=O)C(C(C)C)N(C)C(=O)C(CC(C)C)N(C)C(=O)C(CC(C)C)N(C)C(=O)C(C)NC(=O)C(C)NC(=O)C(CC(C)C)N(C)C(=O)C(C(C)C)NC(=O)C(CC(C)C)N(C)C(=O)CN(C)C1=O` (stereo not drawn) [Compound 420-114], for which the “Immunosuppression (% Relative to CsA)” value in the data set on human lymphocytes is recorded as less than 1%. The “CYP-D Inhibition (% Potency Vs CsA)” value on CyP-D is given as 63.4%.
On to `CCC1NC(=O)C(C(O)C(C)CC=CCCC(=O)N(C)C)N(C)C(=O)C(C(C)C)N(C)C(=O)C(CC(C)C)N(C)C(=O)C(CC(C)C)N(C)C(=O)C(C)NC(=O)C(C)NC(=O)C(CC(C)C)N(C)C(=O)C(C(C)C)NC(=O)C(CC(C)C)N(C)C(=O)CN(C)C1=O` (stereo not drawn) [Compound 404-157], for which the “Immunosuppression (% Relative to CsA)” value in the data set on human lymphocytes is less than 1%. For the same compound, the “CYP-D Inhibition (% Potency Vs CsA)” value on CyP-D stood at 142.3%.
With `CCC1NC(=O)C(C(O)C(C)CC=CCCCCCCNC(=O)OC(C)(C)C)N(C)C(=O)C(C(C)C)N(C)C(=O)C(CC(C)C)N(C)C(=O)C(CC(C)C)N(C)C(=O)C(C)NC(=O)C(C)NC(=O)C(CC(C)C)N(C)C(=O)C(C(C)C)NC(=O)C(CC(C)C)N(C)C(=O)CN(C)C1=O` (stereo not drawn) [Compound 420-120], the “Immunosuppression (% Relative to CsA)” value with human lymphocytes stood at 3%. The “CYP-D Inhibition (% Potency Vs CsA)” value on CyP-D came to 9.4%.
With `CCC1NC(=O)C(C(O)C(C)CC=CCCC#N)N(C)C(=O)C(C(C)C)N(C)C(=O)C(CC(C)C)N(C)C(=O)C(CC(C)C)N(C)C(=O)C(C)NC(=O)C(C)NC(=O)C(CC(C)C)N(C)C(=O)C(C(C)C)NC(=O)C(CC(C)C)N(C)C(=O)CN(C)C1=O` (stereo not drawn) [Compound 404-194], the “Immunosuppression (% Relative to CsA)” value in the data set on human lymphocytes was found to be 2%. The “CYP-D Inhibition (% Potency Vs CsA)” value on CyP-D was 123.2%.
For `CCC1NC(=O)C(C(O)C(C)CC=CCCCC(=O)N(C)C)N(C)C(=O)C(C(C)C)N(C)C(=O)C(CC(C)C)N(C)C(=O)C(CC(C)C)N(C)C(=O)C(C)NC(=O)C(C)NC(=O)C(CC(C)C)N(C)C(=O)C(C(C)C)NC(=O)C(CC(C)C)N(C)C(=O)CN(C)C1=O` (stereo not drawn) [Compound 404-156] the same measures were 1% and 82.2%.
As for `CCOC(=O)CCCCCCC=CCC(C)C(O)C1C(=O)NC(CC)C(=O)N(C)CC(=O)N(C)C(CC(C)C)C(=O)NC(C(C)C)C(=O)N(C)C(CC(C)C)C(=O)NC(C)C(=O)NC(C)C(=O)N(C)C(CC(C)C)C(=O)N(C)C(CC(C)C)C(=O)N(C)C(C(C)C)C(=O)N1C` (stereo not drawn) [Compound 420-113], the “Immunosuppression (% Relative to CsA)” value in the data set with human lymphocytes is given as less than 1%. Besides, the “CYP-D Inhibition (% Potency Vs CsA)” value on CyP-D was 33.2%.
Turning to `CCC1NC(=O)C(C(O)C(C)CCCO)N(C)C(=O)C(C(C)C)N(C)C(=O)C(CC(C)C)N(C)C(=O)C(CC(C)C)N(C)C(=O)C(C)NC(=O)C(C)NC(=O)C(CC(C)C)N(C)C(=O)C(C(C)C)NC(=O)C(CC(C)C)N(C)C(=O)CN(C)C1=O` (stereo not drawn) [Compound 420-28], in the data set with human lymphocytes, the “Immunosuppression (% Relative to CsA)” value was less than 1%. For the same compound, the “CYP-D Inhibition (% Potency Vs CsA)” value on CyP-D is listed as 78.0%.
Turning to `CCC1NC(=O)C(C(O)C(C)CC=CCCCCC(=O)N2CCOCC2)N(C)C(=O)C(C(C)C)N(C)C(=O)C(CC(C)C)N(C)C(=O)C(CC(C)C)N(C)C(=O)C(C)NC(=O)C(C)NC(=O)C(CC(C)C)N(C)C(=O)C(C(C)C)NC(=O)C(CC(C)C)N(C)C(=O)CN(C)C1=O` (stereo not drawn) [Compound 404-162], in the data set on human lymphocytes, the “Immunosuppression (% Relative to CsA)” value is reported as less than 1%. Besides, the “CYP-D Inhibition (% Potency Vs CsA)” value at CyP-D stood at 91.1%.
For `CCC1NC(=O)C(C(O)C(C)CCCCC(N)=O)N(C)C(=O)C(C(C)C)N(C)C(=O)C(CC(C)C)N(C)C(=O)C(CC(C)C)N(C)C(=O)C(C)NC(=O)C(C)NC(=O)C(CC(C)C)N(C)C(=O)C(C(C)C)NC(=O)C(CC(C)C)N(C)C(=O)CN(C)C1=O` (stereo not drawn) [Compound 404-130] the same measures were less than 1% and 114.7%.
In the case of `CCC(O)CCCC(C)C(O)C1C(=O)NC(CC)C(=O)N(C)CC(=O)N(C)C(CC(C)C)C(=O)NC(C(C)C)C(=O)N(C)C(CC(C)C)C(=O)NC(C)C(=O)NC(C)C(=O)N(C)C(CC(C)C)C(=O)N(C)C(CC(C)C)C(=O)N(C)C(C(C)C)C(=O)N1C` (stereo not drawn) [Compound 404-195], the “Immunosuppression (% Relative to CsA)” value in the data set on human lymphocytes was 2%. For the same compound, the “CYP-D Inhibition (% Potency Vs CsA)” value on CyP-D is on record as 143.1%.
`CCC1NC(=O)C(C(O)C(C)CCCCC(=O)N(CC)CC)N(C)C(=O)C(C(C)C)N(C)C(=O)C(CC(C)C)N(C)C(=O)C(CC(C)C)N(C)C(=O)C(C)NC(=O)C(C)NC(=O)C(CC(C)C)N(C)C(=O)C(C(C)C)NC(=O)C(CC(C)C)N(C)C(=O)CN(C)C1=O` (stereo not drawn) [Compound 404-85]: the “Immunosuppression (% Relative to CsA)” value with human lymphocytes is 2%. Besides, on CyP-D, the “CYP-D Inhibition (% Potency Vs CsA)” value turned out to be 128.7%.
In the case of `CCC1NC(=O)C(C(O)C(C)CCCCC(=O)N(C)C)N(C)C(=O)C(C(C)C)N(C)C(=O)C(CC(C)C)N(C)C(=O)C(CC(C)C)N(C)C(=O)C(C)NC(=O)C(C)NC(=O)C(CC(C)C)N(C)C(=O)C(C(C)C)NC(=O)C(CC(C)C)N(C)C(=O)CN(C)C1=O` (stereo not drawn) [Compound 404-132], the “Immunosuppression (% Relative to CsA)” value with human lymphocytes is less than 1%. Also, on CyP-D, the “CYP-D Inhibition (% Potency Vs CsA)” value is 122.0%.
For `CCCC=CCC(C)C(O)C1C(=O)NC(CC)C(=O)N(C)CC(=O)N(C)C(CC(C)C)C(=O)NC(C(C)C)C(=O)N(C)C(CC(C)C)C(=O)NC(C)C(=O)NC(C)C(=O)N(C)C(CC(C)C)C(=O)N(C)C(CC(C)C)C(=O)N(C)C(C(C)C)C(=O)N1C` (stereo not drawn) [Compound 404-26], the “CYP-D Inhibition (% Potency Vs CsA)” value on CyP-D turned out to be 58.4%.
`CCC1NC(=O)C(C(O)C(C)CCCCCCCCCNC(=O)OC(C)(C)C)N(C)C(=O)C(C(C)C)N(C)C(=O)C(CC(C)C)N(C)C(=O)C(CC(C)C)N(C)C(=O)C(C)NC(=O)C(C)NC(=O)C(CC(C)C)N(C)C(=O)C(C(C)C)NC(=O)C(CC(C)C)N(C)C(=O)CN(C)C1=O` (stereo not drawn) [Compound 420-125]: the “CYP-D Inhibition (% Potency Vs CsA)” value at CyP-D is 42.4%.
Consider `CCC1NC(=O)C(C(O)C(C)CC=CCCCCC(=O)N(C)C)N(C)C(=O)C(C(C)C)N(C)C(=O)C(CC(C)C)N(C)C(=O)C(CC(C)C)N(C)C(=O)C(C)NC(=O)C(C)NC(=O)C(CC(C)C)N(C)C(=O)C(C(C)C)NC(=O)C(CC(C)C)N(C)C(=O)CN(C)C1=O` (stereo not drawn) [Compound 404-154], for which, in the data set with human lymphocytes, the “Immunosuppression (% Relative to CsA)” value is reported as 2%. Further, the “CYP-D Inhibition (% Potency Vs CsA)” value at CyP-D is recorded as 119.4%.
For `CCC1NC(=O)C(C(O)C(C)CCCC(C)O)N(C)C(=O)C(C(C)C)N(C)C(=O)C(CC(C)C)N(C)C(=O)C(CC(C)C)N(C)C(=O)C(C)NC(=O)C(C)NC(=O)C(CC(C)C)N(C)C(=O)C(C(C)C)NC(=O)C(CC(C)C)N(C)C(=O)CN(C)C1=O` (stereo not drawn) [Compound 404-98], in that order: 3% and 162.7%.
Regarding `C=CCC(O)CCCC(C)C(O)C1C(=O)NC(CC)C(=O)N(C)CC(=O)N(C)C(CC(C)C)C(=O)NC(C(C)C)C(=O)N(C)C(CC(C)C)C(=O)NC(C)C(=O)NC(C)C(=O)N(C)C(CC(C)C)C(=O)N(C)C(CC(C)C)C(=O)N(C)C(C(C)C)C(=O)N1C` (stereo not drawn) [Compound 420-49-1], the “Immunosuppression (% Relative to CsA)” value in the data set on human lymphocytes came out at 3%. Besides, at CyP-D, the “CYP-D Inhibition (% Potency Vs CsA)” value worked out at 143.6%.
Regarding `CCC1NC(=O)C(C(O)C(C)CC=CCCCCC(N)=O)N(C)C(=O)C(C(C)C)N(C)C(=O)C(CC(C)C)N(C)C(=O)C(CC(C)C)N(C)C(=O)C(C)NC(=O)C(C)NC(=O)C(CC(C)C)N(C)C(=O)C(C(C)C)NC(=O)C(CC(C)C)N(C)C(=O)CN(C)C1=O` (stereo not drawn) [Compound 404-164], the “CYP-D Inhibition (% Potency Vs CsA)” value at CyP-D is reported as 98.9%.
